Entries after “also recorded” stand apart in the source; their conditions may differ.
Assays:
Helicobacter pylori [1] = assay: TLC bacterial overlay assay with 35S-labeled Helicobacter pylori; type: binding; settings: for binding activity of neoglycolipid with regard to Helicobacter pylori: oligosaccharide reductively aminated with 4-hexadecylaniline (HDA); for binding of Helicobacter pylori to the glycosphingolipid on TLC plates: overlay with 35S-labeled bacteria, autoradiography, visual evaluation; for binding of Helicobacter pylori strain 032 to purified glycosphingolipids (FIGS. 7A and 7B): 4 μg per lane, autoradiography 72 h; for lowest amount of glycolipid giving a positive response on TLC plates: dilution series, semi-quantitative, evaluated visually, pentaglycosylceramide mean of 7 experiments; for binding of Helicobacter pylori strain 032 to purified glycosphingolipids (FIGS. 7A and 7B) / binding frequency: strain 032; for binding frequency: total number of plates about 100
[2] = system: Helicobacter pylori binding to human gastrointestinal cell lines; settings: Simon et al.; cited from earlier work
Helicobacter pylori [3] = settings: Mysore et al.; cited from earlier work

CCCCCCCCCCCCCCCCc1ccc(NC[C@H](O)[C@@H](O)[C@H](O[C@@H]2O[C@H](CO)[C@H](O)[C@H](O[C@@H]3O[C@H](CO)[C@@H](O[C@@H]4O[C@H](CO)[C@H](O)[C@H](O[C@@H]5O[C@H](CO)[C@@H](O)[C@H](O)[C@H]5NC(C)=O)[C@H]4O)[C@H](O)[C@H]3NC(C)=O)[C@H]2O)[C@H](O)CO)cc1 [GlcNAcβ3Galβ4GlcNAcβ3Galβ4Glc(red)-HDA]
binding activity of neoglycolipid with regard to Helicobacter pylori (Helicobacter pylori [1]): clear binding activity

CC(=O)N[C@H]1[C@H](OC[C@H]2OC(O)[C@H](O)[C@@H](O)[C@H]2O)O[C@H](CO)[C@@H](O[C@@H]2O[C@H](CO)[C@H](O)[C@H](O[C@@H]3O[C@H](CO)[C@@H](O)[C@H](O)[C@H]3NC(C)=O)[C@H]2O)[C@@H]1O (stereo partly drawn) [GlcNAcβ3Galβ4GlcNAcβ6Gal]
binding activity of neoglycolipid with regard to Helicobacter pylori (Helicobacter pylori [1]): some binding activity

Fucα2Galβ4GlcNAcβ3Galβ4Glcβ1Cer [H5-2]
binding of Helicobacter pylori to the glycosphingolipid on TLC plates (Helicobacter pylori [1]): absence of binding | binding of Helicobacter pylori to the glycosphingolipid on TLC plates (Helicobacter pylori [1]; listed as HS-2): inactive

GalNAcα3Galβ4GlcNAcβ3Galβ4GlcβCer
binding of Helicobacter pylori to the glycosphingolipid on TLC plates (Helicobacter pylori [1]): bind Helicobacter pylori | binding of Helicobacter pylori to the glycosphingolipid on TLC plates (Helicobacter pylori [1]; listed as GalNAcα3 Galβ4GlcNAcβ3Galβ4GlcβCer): binding was also found

GalNAcβ3Galβ3Galβ4GlcNAcβ3Galβ4Glcβ3Cer [GalNAcβ3-B5]
binding of Helicobacter pylori to the glycosphingolipid on TLC plates (Helicobacter pylori [1]): non-binding | binding of Helicobacter pylori to the glycosphingolipid on TLC plates (Helicobacter pylori [1]; listed as GalNAcβ3Galβ3Galβ4GlcNAcβ3Galβ4Glcβ3Cer): did not appear to bind | binding of Helicobacter pylori to the glycosphingolipid on TLC plates (Helicobacter pylori [1]; listed as no. 25): complete loss of binding

GalNAcβ3Galβ4GlcNAcβ3Galβ4GlcβCer
binding of Helicobacter pylori to the glycosphingolipid on TLC plates (Helicobacter pylori [1]): bind Helicobacter pylori | binding of Helicobacter pylori to the glycosphingolipid on TLC plates (Helicobacter pylori [1]; listed as x2 GSL): binding | binding of Helicobacter pylori strain 032 to purified glycosphingolipids (FIGS. 7A and 7B) (Helicobacter pylori [1]): binding was also found

Galα3(Fucα2)Galβ4GlcNAcβ3Galβ4Glcβ1Cer [B6-2]
binding of Helicobacter pylori to the glycosphingolipid on TLC plates (Helicobacter pylori [1]): non-binding; also recorded: inactive | binding of Helicobacter pylori to the glycosphingolipid on TLC plates (Helicobacter pylori [1]; listed as Galα3(Fucα2)Galβ4GlcNAcβ3Galβ4Glcβ3Cer): non-binding

Galα3Galβ4GlcNAcβ3Galβ4Glc(red)-HDA
binding activity of neoglycolipid with regard to Helicobacter pylori (Helicobacter pylori [1]): clear binding activity

Galα3Galβ4GlcNAcβ3Galβ4GlcNAcβ3Galβ4GlcβCer
binding of Helicobacter pylori to the glycosphingolipid on TLC plates (Helicobacter pylori [1]): higher activity | binding of Helicobacter pylori to the glycosphingolipid on TLC plates (Helicobacter pylori [1]; listed as no. 28): observed binding

Galα3Galβ4GlcNAcβ3Galβ4GlcβCer
binding of Helicobacter pylori to the glycosphingolipid on TLC plates (Helicobacter pylori [1]): bind Helicobacter pylori | binding of Helicobacter pylori to the glycosphingolipid on TLC plates (Helicobacter pylori [1]; listed as B5): binding | binding of Helicobacter pylori to the glycosphingolipid on TLC plates (Helicobacter pylori [1]; listed as B5 glycosphingolipid): equally active | binding of Helicobacter pylori strain 032 to purified glycosphingolipids (FIGS. 7A and 7B) (Helicobacter pylori [1]): binding-active

Galα3Galβ4GlcNβ3Galβ4GlcβCer
binding of Helicobacter pylori to the glycosphingolipid on TLC plates (Helicobacter pylori [1]): not binding | binding of Helicobacter pylori to the glycosphingolipid on TLC plates (Helicobacter pylori [1]; listed as Galα3Galβ4GlcNH2βGalβ4GlcβCer): non-binding | binding of Helicobacter pylori to the glycosphingolipid on TLC plates (Helicobacter pylori [1]; listed as no. 14): loss of bacterial binding

Galβ4GlcNAcβ3(Galβ4GlcNAcβ6)Galβ4GlcβCer
binding of Helicobacter pylori to the glycosphingolipid on TLC plates (Helicobacter pylori [1]): destroyed | binding of Helicobacter pylori to the glycosphingolipid on TLC plates (Helicobacter pylori [1]; listed as glycosphingolipid from bovine buttermilk): non-binding

Galβ4GlcNAcβ3Galβ4GlcNAcβ3Galβ4GlcβCer
lowest amount of glycolipid giving a positive response on TLC plates (Helicobacter pylori [1]): ~0.2 nmol/spot | binding of Helicobacter pylori to the glycosphingolipid on TLC plates (Helicobacter pylori [1]): weaker binding; also recorded: weaker activity | binding of Helicobacter pylori to the glycosphingolipid on TLC plates (Helicobacter pylori [1]; listed as Galβ4GlcNAcβ3Galβ4-GlcNAcβ3Galβ4GlcβCer): binding-active; also recorded: reduced affinity | binding of Helicobacter pylori to the glycosphingolipid on TLC plates (Helicobacter pylori [1]; listed as hexaglycosylceramides): displayed binding activity | binding frequency (Helicobacter pylori [1]): ~90%

Galβ4GlcNAcβ3Galβ4GlcβCer
lowest amount of glycolipid giving a positive response on TLC plates (Helicobacter pylori [1]): ~0.3 nmol/spot | binding of Helicobacter pylori to the glycosphingolipid on TLC plates (Helicobacter pylori [1]): binding is weaker | binding of Helicobacter pylori to the glycosphingolipid on TLC plates (Helicobacter pylori [1]; listed as tetraglycosylceramides): displayed binding activity | binding of Helicobacter pylori strain 032 to purified glycosphingolipids (FIGS. 7A and 7B) (Helicobacter pylori [1]): binding

Galβ4GlcNβ3Galβ4GlcβCer
binding of Helicobacter pylori to the glycosphingolipid on TLC plates (Helicobacter pylori [1]): not binding | binding of Helicobacter pylori to the glycosphingolipid on TLC plates (Helicobacter pylori [1]; listed as no. 6): loss of bacterial binding

Glc(A-methylamide)β3Galβ4GlcNAcβ3Galβ4GlcβCer
binding of Helicobacter pylori to the glycosphingolipid on TLC plates (Helicobacter pylori [1]): very strong binding

GlcAβ3Galβ4GlcNAcβ3Galβ4GlcβCer
binding of Helicobacter pylori to the glycosphingolipid on TLC plates (Helicobacter pylori [1]): binding active

GlcNAcβ3Galβ4GlcNAc(red)-HDA
binding activity of neoglycolipid with regard to Helicobacter pylori (Helicobacter pylori [1]): weakly binding or inactive

GlcNAcβ3Galβ4GlcNAcβ3Galβ4GlcβCer
lowest amount of glycolipid giving a positive response on TLC plates (Helicobacter pylori [1]): 0.039 nmol/spot | binding of Helicobacter pylori to the glycosphingolipid on TLC plates (Helicobacter pylori [1]): binding-active; also recorded: high affinity | binding of Helicobacter pylori to the glycosphingolipid on TLC plates (Helicobacter pylori [1]; listed as five-sugar glycosphingolipid from rabbit thymus): equally active | binding of Helicobacter pylori to the glycosphingolipid on TLC plates (Helicobacter pylori [1]; listed as pentaglycosylceramide): strong activity; also recorded: highly active; also recorded: most active species | binding of Helicobacter pylori to the glycosphingolipid on TLC plates (Helicobacter pylori [1]; listed as pentaglycosylceramides): displayed binding activity | binding frequency (Helicobacter pylori [1]): ~90%

GlcNAcβ3Galβ4GlcNAcβ6GlcNAc(red)-HDA
binding activity of neoglycolipid with regard to Helicobacter pylori (Helicobacter pylori [1]): strong binding activity | binding activity of neoglycolipid with regard to Helicobacter pylori (Helicobacter pylori [1]; listed as GlcNAcβ3Galβ4GlcNAcβ6GlcNAc): high affinity binding

GlcNAcβ3Galβ4GlcβCer
binding of Helicobacter pylori to the glycosphingolipid on TLC plates (Helicobacter pylori [1]): not binding | binding of Helicobacter pylori to the glycosphingolipid on TLC plates (Helicobacter pylori [1]; listed as triglycosylceramide): inactive

Glcβ3Galβ4GlcNAcβ3Galβ4GlcβCer
binding of Helicobacter pylori to the glycosphingolipid on TLC plates (Helicobacter pylori [1]): strong binding

NeuAcα3GalNAcβ3Galβ4GlcNAcβ3Galβ4Glcβ1Cer [NeuAc-x2]
binding of Helicobacter pylori to the glycosphingolipid on TLC plates (Helicobacter pylori [1]; listed as Neu5Acα3GalNAcβ3Galβ4GlcNAcβ3Galβ4GlcβCer): did not appear to bind | binding of Helicobacter pylori to the glycosphingolipid on TLC plates (Helicobacter pylori [1]; listed as NeuAcα3GalNAcβ3Galβ4GlcNAcβ3Galβ4GlcβCer): non-binding | binding of Helicobacter pylori to the glycosphingolipid on TLC plates (Helicobacter pylori [1]; listed as no. 24): complete loss of binding | binding of Helicobacter pylori strain 032 to purified glycosphingolipids (FIGS. 7A and 7B) (Helicobacter pylori [1]): non-binding

NeuGcα3Galβ4GlcNAcβ3Galβ4GlcNAcβ3Galβ4GlcβCer
binding by Helicobacter pylori isolates (Helicobacter pylori [1]; about 60 isolates tested): bound by most Helicobacter pylori isolates | binding of Helicobacter pylori to the glycosphingolipid on TLC plates (Helicobacter pylori [1]): weaker binding

maltoheptaose(red)-HDA [reference compound]
binding activity of neoglycolipid with regard to Helicobacter pylori (Helicobacter pylori [1]): weakly binding or inactive

sialyl-lactose
inhibition of Helicobacter pylori binding to human gastrointestinal cell lines [2]: inhibits | efficacy in rhesus monkey animal model of the infection (Helicobacter pylori [3]): effective

From US20040096465A1, “Novel receptors for $1(helicobater pyroli) and use thereof” (priority 2001, published 2004)
